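Results reflect a 48-hour exposure of cells in 96-well plates to compound at five concentrations. TGI denotes the concentration required for complete inhibition of growth.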 Where a SMILES comes first, the peptide text is derived from it. The star is where a group is joined. Bn = c1ccc(C*)cc1
Key:
Assay in all cases: growth of human tumour cells (NCI), 48 h
EKVX NSCLC = tested on: EKVX NSCLC
SF-268 CNS = tested on: SF-268 CNS
HCT-116 colon = tested on: HCT-116 colon
SNB-19 CNS = tested on: SNB-19 CNS
M14 melanoma = tested on: M14 melanoma
OVCAR-5 ovarian = tested on: OVCAR-5 ovarian
SF-539 CNS = tested on: SF-539 CNS
PC-3 prostate = tested on: PC-3 prostate
786-0 renal = tested on: 786-0 renal
MALME-3M melanoma = tested on: MALME-3M melanoma

O=C(O)CSC(NC(=O)C(C(F)(F)F)C(F)(F)F)(C(F)(F)F)C(F)(F)F
TGI (EKVX NSCLC): > 100 µM
TGI (SF-268 CNS): > 100 µM
TGI (HCT-116 colon): > 100 µM
TGI (SNB-19 CNS): > 100 µM
TGI (M14 melanoma): > 100 µM
TGI (OVCAR-5 ovarian): > 100 µM
TGI (SF-539 CNS): > 100 µM
TGI (PC-3 prostate): > 100 µM
TGI (786-0 renal): > 100 µM

CN(C)P(=O)(Oc1occc1C(O)Cc1ccccc1)N(C)C (stereo not drawn)
TGI (EKVX NSCLC): > 100 µM
TGI (SF-268 CNS): > 100 µM
TGI (MALME-3M melanoma): > 100 µM
TGI (HCT-116 colon): > 100 µM
TGI (SNB-19 CNS): > 100 µM
TGI (M14 melanoma): > 100 µM
TGI (OVCAR-5 ovarian): > 100 µM
TGI (SF-539 CNS): > 100 µM
TGI (PC-3 prostate): > 100 µM
TGI (786-0 renal): > 100 µM

C[C@]1(S(=O)(=O)c2ccccc2)C[C@H]2N(Cc3ccccc3)[C@@H]1CCC21OCCO1
TGI (EKVX NSCLC): > 100 µM
TGI (SF-268 CNS): > 100 µM
TGI (MALME-3M melanoma): > 100 µM
TGI (HCT-116 colon): > 100 µM
TGI (SNB-19 CNS): > 100 µM
TGI (M14 melanoma): > 100 µM
TGI (OVCAR-5 ovarian): > 100 µM
TGI (PC-3 prostate): > 100 µM
TGI (786-0 renal): > 100 µM

CC1=CC(=O)CC2(C)CCC(C(C)CC(=O)CC(C)C)CC12 (stereo not drawn)
TGI (EKVX NSCLC): > 100 µM
TGI (SF-268 CNS): > 100 µM
TGI (MALME-3M melanoma): 62.4 µM
TGI (HCT-116 colon): 30.4 µM
TGI (SNB-19 CNS): > 100 µM
TGI (M14 melanoma): 32.1 µM
TGI (OVCAR-5 ovarian): > 100 µM
TGI (SF-539 CNS): 30 µM
TGI (PC-3 prostate): 40.7 µM
TGI (786-0 renal): 31 µM

COc1cc(C=C2C(=O)NC(=S)NC2=O)cc(OC)c1OC
TGI (EKVX NSCLC): > 100 µM
TGI (SF-268 CNS): > 100 µM
TGI (MALME-3M melanoma): > 100 µM
TGI (HCT-116 colon): > 100 µM
TGI (SNB-19 CNS): > 100 µM
TGI (M14 melanoma): > 100 µM
TGI (OVCAR-5 ovarian): > 100 µM
TGI (SF-539 CNS): > 100 µM
TGI (PC-3 prostate): > 100 µM
TGI (786-0 renal): > 100 µM

OCC(O)C(O)C(O)/C=N/Nc1nc(O)c(/C=C2\C=Nc3ccccc32)[nH]1 (stereo not drawn)
TGI (EKVX NSCLC): > 100 µM
TGI (SF-268 CNS): > 100 µM
TGI (MALME-3M melanoma): > 100 µM
TGI (HCT-116 colon): > 100 µM
TGI (SNB-19 CNS): > 100 µM
TGI (M14 melanoma): > 100 µM
TGI (OVCAR-5 ovarian): > 100 µM
TGI (SF-539 CNS): > 100 µM
TGI (786-0 renal): > 100 µM

COC(=O)C1OC(O[C@H]2CC[C@]3(C)[C@H]4CC=C5[C@@H]6CC(C)(C)CC[C@]6(C(=O)OC6OCC(O)C(O)C6OC6OC(C)C(OC7OCC(OC8OCC(O)C(O)C8O)C(O)C7O)C(O)C6O)[C@H](O)C[C@@]5(C)[C@]4(C)CC[C@H]3C2(C)C)C(O)C(O)C1O (stereo partly drawn)
TGI (EKVX NSCLC): 5.86 µM
TGI (SF-268 CNS): 13.9 µM
TGI (MALME-3M melanoma): 14.5 µM
TGI (HCT-116 colon): 12.9 µM
TGI (SNB-19 CNS): 8.09 µM
TGI (M14 melanoma): 3.56 µM
TGI (OVCAR-5 ovarian): 8.01 µM
TGI (SF-539 CNS): > 100 µM
TGI (PC-3 prostate): 15.5 µM
TGI (786-0 renal): 20.2 µM

COC(=O)c1cc2c(cc1CC(Cc1ccc3c(c1)CCC3)C(=O)OC)CCC2 (stereo not drawn)
TGI (EKVX NSCLC): > 100 µM
TGI (SF-268 CNS): > 100 µM
TGI (MALME-3M melanoma): > 100 µM
TGI (HCT-116 colon): > 100 µM
TGI (SNB-19 CNS): > 100 µM
TGI (M14 melanoma): > 100 µM
TGI (OVCAR-5 ovarian): > 100 µM
TGI (SF-539 CNS): > 100 µM
TGI (PC-3 prostate): > 100 µM
TGI (786-0 renal): > 100 µM

COc1cc2c(cc1OC)C13CC[N+]4(C)CC5=CCOC6CC(=O)N2C1C6C5CC34[O-] (stereo not drawn)
TGI (EKVX NSCLC): > 100 µM
TGI (SF-268 CNS): > 100 µM
TGI (MALME-3M melanoma): > 100 µM
TGI (HCT-116 colon): > 100 µM
TGI (SNB-19 CNS): > 100 µM
TGI (M14 melanoma): > 100 µM
TGI (SF-539 CNS): > 100 µM
TGI (PC-3 prostate): > 100 µM
TGI (786-0 renal): > 100 µM

COC(=O)[C@H](Cc1ccccc1)NC(=O)c1ccc(CNC(=O)/C=C/c2cccc(Oc3ccccc3)c2)cc1
TGI (EKVX NSCLC): > 100 µM
TGI (SF-268 CNS): 59.3 µM
TGI (MALME-3M melanoma): 30.4 µM
TGI (HCT-116 colon): > 100 µM
TGI (SNB-19 CNS): > 100 µM
TGI (M14 melanoma): 30.8 µM
TGI (OVCAR-5 ovarian): > 100 µM
TGI (PC-3 prostate): > 100 µM
TGI (786-0 renal): > 100 µM

COC(=O)C(CC(C)C)NC(=O)C(N)Cc1ccc(OCc2ccccc2)cc1 (stereo not drawn) (H-Tyr(Bn)-Leu-OMe; configuration not given here)
TGI (EKVX NSCLC): > 10 µM
TGI (SF-268 CNS): > 10 µM
TGI (MALME-3M melanoma): 6.62 µM
TGI (HCT-116 colon): > 10 µM
TGI (SNB-19 CNS): > 10 µM
TGI (M14 melanoma): > 10 µM
TGI (OVCAR-5 ovarian): > 10 µM
TGI (SF-539 CNS): > 10 µM
TGI (PC-3 prostate): > 10 µM
TGI (786-0 renal): > 10 µM

CC(C)(C)OC(=O)C1C(=O)NC(=O)CC1C(COCc1ccccc1)OCc1ccccc1 (stereo not drawn)
TGI (EKVX NSCLC): 55.5 µM
TGI (SF-268 CNS): 59.3 µM
TGI (MALME-3M melanoma): 35.5 µM
TGI (HCT-116 colon): 32.7 µM
TGI (SNB-19 CNS): > 100 µM
TGI (M14 melanoma): 34.8 µM
TGI (OVCAR-5 ovarian): 41.1 µM
TGI (SF-539 CNS): 40.6 µM
TGI (PC-3 prostate): 27.2 µM
TGI (786-0 renal): 45.3 µM

Nc1nc(Nc2ccc(Cl)cc2)sc1C(=O)c1cccs1
TGI (EKVX NSCLC): 69.7 µM
TGI (SF-268 CNS): 83.4 µM
TGI (MALME-3M melanoma): > 100 µM
TGI (HCT-116 colon): > 100 µM
TGI (SNB-19 CNS): 47.6 µM
TGI (M14 melanoma): > 100 µM
TGI (OVCAR-5 ovarian): > 100 µM
TGI (SF-539 CNS): 61 µM
TGI (PC-3 prostate): > 100 µM
TGI (786-0 renal): > 100 µM

O=C1CC(Sc2nc3ccc(I)cc3c(=O)n2Cc2ccccc2)C(=O)NN1 (stereo not drawn)
TGI (EKVX NSCLC): 31.8 µM
TGI (SF-268 CNS): 30.1 µM
TGI (MALME-3M melanoma): 33.1 µM
TGI (HCT-116 colon): 29.1 µM
TGI (SNB-19 CNS): 39.1 µM
TGI (M14 melanoma): 39.8 µM
TGI (OVCAR-5 ovarian): 41.4 µM
TGI (SF-539 CNS): 35.5 µM
TGI (PC-3 prostate): 30.7 µM
TGI (786-0 renal): 28.4 µM

Cc1c(C#N)c(N)n(C2OCC(O)C(O)C2O)c(=S)c1C#N (stereo not drawn)
TGI (SF-268 CNS): > 100 µM
TGI (MALME-3M melanoma): > 100 µM
TGI (SNB-19 CNS): > 100 µM
TGI (M14 melanoma): > 100 µM
TGI (OVCAR-5 ovarian): > 100 µM
TGI (SF-539 CNS): > 100 µM
TGI (PC-3 prostate): > 100 µM
TGI (786-0 renal): > 100 µM

CC1(C)[C@@H](Cn2cnc3c(Cl)nc(N)nc32)CC[C@@]1(C)CO
TGI (EKVX NSCLC): > 100 µM
TGI (SF-268 CNS): 43.3 µM
TGI (HCT-116 colon): > 100 µM
TGI (SNB-19 CNS): > 100 µM
TGI (M14 melanoma): > 100 µM
TGI (OVCAR-5 ovarian): > 100 µM
TGI (SF-539 CNS): > 100 µM
TGI (PC-3 prostate): > 100 µM
TGI (786-0 renal): > 100 µM

Nc1nc(Nc2ccccc2)sc1C(=O)c1c[nH]c2ccccc12
TGI (EKVX NSCLC): 27.4 µM
TGI (SF-268 CNS): 33.8 µM
TGI (MALME-3M melanoma): 34.5 µM
TGI (HCT-116 colon): 19.5 µM
TGI (SNB-19 CNS): 20.3 µM
TGI (M14 melanoma): 20.6 µM
TGI (OVCAR-5 ovarian): 24.9 µM
TGI (SF-539 CNS): 27.4 µM
TGI (PC-3 prostate): 25.3 µM
TGI (786-0 renal): 18.2 µM

COc1c(O)c(O)cc2c1-c1ccc(OC)c(=O)cc1C(NC(C)=O)CC2 (stereo not drawn)
TGI (EKVX NSCLC): 98.2 µM
TGI (SF-268 CNS): > 95.2 µM
TGI (MALME-3M melanoma): > 100 µM
TGI (HCT-116 colon): 25.6 µM
TGI (SNB-19 CNS): > 100 µM
TGI (M14 melanoma): > 79 µM
TGI (OVCAR-5 ovarian): 80.6 µM
TGI (SF-539 CNS): 10.4 µM
TGI (PC-3 prostate): > 100 µM
TGI (786-0 renal): 74.8 µM

O=C(CCCN1CCC2(CC1)C(=NC1CCCCC1)NC(=O)N2c1ccccc1)c1ccc(F)cc1
TGI (EKVX NSCLC): > 100 µM
TGI (SF-268 CNS): 40.1 µM
TGI (MALME-3M melanoma): 29.9 µM
TGI (HCT-116 colon): 46.1 µM
TGI (SNB-19 CNS): > 100 µM
TGI (M14 melanoma): 32.8 µM
TGI (OVCAR-5 ovarian): 55 µM
TGI (SF-539 CNS): 33.9 µM
TGI (PC-3 prostate): 43.3 µM
TGI (786-0 renal): 45 µM

CCOC(=O)[C@@H]1ON2O[C@@H](OC3CCCC3(c3ccccc3)c3ccccc3)C[C@H]3OC(=O)[C@@H]1C32 (stereo partly drawn)
TGI (EKVX NSCLC): > 100 µM
TGI (SF-268 CNS): 70.2 µM
TGI (HCT-116 colon): > 100 µM
TGI (M14 melanoma): 51.9 µM
TGI (OVCAR-5 ovarian): 78.4 µM
TGI (SF-539 CNS): 68 µM
TGI (786-0 renal): 79 µM

S=C1CC(c2ccccc2)Sc2ccc(Cl)cc2N1 (stereo not drawn)
TGI (EKVX NSCLC): > 100 µM
TGI (SF-268 CNS): > 100 µM
TGI (MALME-3M melanoma): > 100 µM
TGI (HCT-116 colon): > 100 µM
TGI (SNB-19 CNS): > 100 µM
TGI (M14 melanoma): > 100 µM
TGI (OVCAR-5 ovarian): > 100 µM
TGI (PC-3 prostate): > 100 µM
TGI (786-0 renal): 59.5 µM

From PubChem BioAssay (NCI)
